Assay results: US20190185479A1, “BICYCLIC NITROGENATED HETEROCYCLIC COMPOUND” (MITSUBISHI TANABE PHARMA CORPORATION, priority 2016, published 2019)

Target: T1, Human PDE7B (hPDE7B) (Homo sapiens, UniProt Q9NP56)
T1 construct: made in house; host or cells: COS-7 cells
Test: Measurement of PDE7 inhibitory activity (Experimental Example 1; residual cAMP, LANCE Ultra cAMP TR-FRET)
Assay type: biochemical
Settings: for IC50: cAMP 3 nmol/L, room temperature 60 minutes
Procedure: Human PDE7B (hPDE7B) was isolated from COS-7 cells transfected with plasmids encoding hPDE7B according to the method described in a reference, Biochemical and Biophysical Research Communication, 271, p. 575-583 (2000). The resulting enzyme solution was used in the PDE assay.
PDE7 inhibitory assay was carried out by reacting the mixture of a compound, hPDE7B, and cAMP, and measuring the residual cAMP by a detection method using LANCE (registered trademark) Ultra cAMP Detection Kit (ParkinElmer). The compound was dissolved in DMSO, and diluted so that the concentration would become 50 times of the final concentration. The hPDE7B and cAMP were diluted with an assay buffer (50 mmol/L Tris-HCl, 1 mmol/L MgCl2, 0.1% BSA, 0.5 mmol/L DTT, pH7.5) so that the hPDE7B would have an appropriate enzyme activity and the concentration of cAMP would become 6 nmol/L. To a 96 well plate were added the compound (2 μL) (DMSO final concentration: 2%), hPDE7B (48 μL), and cAMP (50 μL) (concentration at the reaction: 3 nmol/L), and the resulting mixture was reacted at room temperature for 60 minutes. The reaction solution (20 μL) was subjected to a TR-FRET method according to the protocol specified by the kit to measure the concentration of the residual cAMP. In the assay, to a tracer solution specified by the kit was added 0.5 mmol/L of 3-isobutyl-1-methylxanthine (IBMX, nonselective PDE inhibitor) in order to stop the PDE enzyme reaction after the completion of reaction until the measurement.
The reaction without a compound was defined as “0% inhibition”, the reaction without hPDE7B was defined as “100% inhibition”, and the inhibition rate of the compound was calculated by the following equation.
Inhibition rate of compound (%)={(Residual cAMP concentration at the addition of compound−Residual cAMP concentration in 0% inhibition)/(Residual cAMP concentration in 100% inhibition−Residual cAMP concentration in 0% inhibition)}×100

T1 sequence (Q9NP56 whole entry): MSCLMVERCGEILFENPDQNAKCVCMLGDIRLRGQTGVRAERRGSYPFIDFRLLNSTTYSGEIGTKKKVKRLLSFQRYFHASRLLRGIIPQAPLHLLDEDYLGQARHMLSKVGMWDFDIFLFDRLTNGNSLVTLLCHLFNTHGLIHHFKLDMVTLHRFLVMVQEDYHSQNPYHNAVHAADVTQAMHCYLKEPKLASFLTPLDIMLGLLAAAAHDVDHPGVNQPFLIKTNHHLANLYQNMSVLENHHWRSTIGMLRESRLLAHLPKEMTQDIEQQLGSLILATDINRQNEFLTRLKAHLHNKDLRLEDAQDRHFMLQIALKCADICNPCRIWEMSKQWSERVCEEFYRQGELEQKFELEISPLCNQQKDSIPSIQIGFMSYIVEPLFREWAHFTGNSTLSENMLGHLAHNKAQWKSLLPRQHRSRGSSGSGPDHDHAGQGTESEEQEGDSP

Row | IC50 [nM] | inhibition at 1 µM (compound at 1 μmol/L) [%] | Compound
1 | 30 |  | CC1CCN(c2nnc3c(N)nccn23)CC1C (mixture of isomers) [Example 55, 3-(3,4-dimethylpiperidin-1-yl) [1,2,4]triazolo[4,3-a]pyrazin-8-amine]
2 | 80 |  | CC1CCCCC1n1nnc2c(N)ncnc21 (racemic) [Example 1, 3-(trans-2-methylcyclohexyl)-3H-[1,2,3]triazolo[4,5-d]pyrimidin-7-amine]
3 | 320 |  | Nc1nccn2c(C3CCCc4ccccc43)nnc12 (racemic) [Example 17, 3-(1,2,3,4-tetrahydronaphthalen-1-yl)-[1,2,4]triazolo[4,3-a]pyrazin-8-amine]
4 | 40 |  | CCC1CCCCN1c1nnc2c(N)nccn12 (racemic) [Example 23, 3-(2-ethylpiperidin-1-yl) [1,2,4]triazolo[4,3-a]pyrazin-8-amine]
5 | 20 |  | CC1CC(C)CN(c2nnc3c(N)nccn23)C1 (racemic) [Example 53, 3-[trans-3,5-dimethylpiperidin-1-yl][1,2,4]triazolo[4,3-a]pyrazin-8-amine]
6 | 20 |  | CC1CCC(C)N(c2nnc3c(N)nccn23)C1 (racemic) [Example 58, 3-(2,5-dimethylpiperidin-1-yl) [1,2,4]triazolo[4,3-a]pyrazin-8-amine]
7 | 240 |  | CC1CCC(C)N(c2nnc3c(N)nccn23)C1 (racemic) [Example 59, 3-(2,5-dimethylpiperidin-1-yl) [1,2,4]triazolo[4,3-a]pyrazin-8-amine]
8 | < 10 |  | CC1CCC(C)N(c2nnc3c(N)ncc(C#N)n23)C1 (racemic) [Example 60, 8-amino-3-(2,5-dimethylpiperidin-1-yl) [1,2,4]triazolo[4,3-a]pyrazine-5-carbonitrile]
9 | < 10 |  | CC1CCC(C)(C)CN1c1nnc2c(N)nccn12 (racemic) [Example 65, 3-(2,5,5-trimethylpiperidin-1-yl) [1,2,4]triazolo[4,3-a]pyrazin-8-amine]
10 | 1 |  | CC1(C)CCCC(c2nnc3c(N)ncnn23)C1 (racemic) [Example 73, 3-(3,3-dimethylcyclohexyl) [1,2,4]triazolo[3,4-f][1,2,4]triazin-8-amine]
11 | < 10 |  | CC1CCC(F)(F)CC1c1nnc2c(N)ncnn12 (racemic) [Example 76, 3-(cis-5,5-difluoro-2-methylcyclohexyl) [1,2,4]triazolo[3,4-f][1,2,4]triazin-8-amine]
12 | 310 |  | Nc1nccn2c(C3CCc4ccccc4C3)nnc12 (racemic) [Example 77, 3-(1,2,3,4-tetrahydronaphthalen-2-yl)-[1,2,4]triazolo[4,3-a]pyrazin-8-amine]
13 | 260 |  | CCCC1CCCCN1c1nnc2c(N)nccn12 (racemic) [Example 79, 3-(2-propylpiperidin-1-yl)-[1,2,4]triazolo[4,3-a]pyrazin-8-amine]
14 | 30 |  | Nc1ncnc2c1nnn2[C@H]1CCC[C@@H](C(F)(F)F)C1 (racemic) [Example 87, 3-[cis-3-(trifluoromethyl)cyclohexyl]-3H-[1,2,3]triazolo[4,5-d]pyrimidin-7-amine]
15 | 60 |  | CC1CCCC(n2nnc3c(N)ncnc32)C1 (racemic) [Example 94, 3-(trans-3-methylcyclohexyl)-3H-[1,2,3]triazolo[4,5-d]pyrimidin-7-amine]
16 | 40 |  | CC1CCCCC1n1nnc2c(N)ncnc21 (racemic) [Example 95, 3-(cis-2-methylcyclohexyl)-3H-[1,2,3]triazolo[4,5-d]pyrimidin-7-amine]
17 | 950 |  | Nc1ncnc2c1nnn2C1CCCCC1C(F)(F)F (racemic) [Example 96]
18 | 50 |  | Nc1ncnc2c1nnn2C1CCCCC1F (racemic) [Example 97, 3-(cis-2-fluorocyclohexyl)-3H-[1,2,3]triazolo[4,5-d]pyrimidin-7-amine]
19 | 80 |  | CC1CCCC(n2nnc3c(N)ncnc32)C1 (racemic) [Example 98, 3-(cis-3-methylcyclohexyl)-3H-[1,2,3]triazolo[4,5-d]pyrimidin-7-amine]
20 | 320 |  | CO[C@H]1CCCC[C@H]1n1nnc2c(N)ncnc21 (racemic) [Example 111, 3-[cis-2-methoxycyclohexyl]-3H-[1,2,3]triazolo[4,5-d]pyrimidin-7-amine]

Row | IC50 [nM] | inhibition at 1 µM (compound at 1 μmol/L) [%] | Compound
21 | 30 |  | Nc1ncnc2c1nnn2C1CCCCC1(F)F (racemic) [Example 113, 3-(2,2-difluorocyclohexyl)-3H-[1,2,3]triazolo[4,5-d]pyrimidin-7-amine]
22 | 50 |  | C[C@H]1CCC[C@H](c2nnc3c(N)nccn23)C1 (racemic) [Example 143, 3-(trans-3-methylcyclohexyl) [1,2,4]triazolo[4,3-a]pyrazin-8-amine]
23 | 10 |  | CC1(C)CCCC(c2nnc3c(N)nccn23)C1 (racemic) [Example 144, 3-(3,3-dimethylcyclohexyl) [1,2,4]triazolo[4,3-a]pyrazin-8-amine]
24 | 30 |  | Nc1nccn2c(C3CCCC4(CC4)C3)nnc12 (racemic) [Example 145, 3-(spiro[2,5]oct-5-yl) [1,2,4]triazolo[4,3-a]pyrazin-8-amine]
25 | 40 |  | Nc1nccn2c(C3CCCC(C(F)(F)F)C3)nnc12 (racemic) [Example 146, 3-[cis-3-(trifluoromethyl)cyclohexyl][1,2,4]triazolo[4,3-a]pyrazin-8-amine]
26 | 10 |  | CC1CCC(C(F)(F)F)CC1c1nnc2c(N)nccn12 (racemic) [Example 151, 3-[2-methyl-5-(trifluoromethyl)cyclohexyl][1,2,4]triazolo[4,3-a]pyrazin-8-amine]
27 | < 10 |  | CC1CCC(F)(F)CC1c1nnc2c(N)nccn12 (racemic) [Example 152, 3-(cis-5,5-difluoro-2-methylcyclohexyl) [1,2,4]triazolo[4,3-a]pyrazin-8-amine]
28 | 90 |  | CC1CC(c2nnc3c(N)nccn23)CC(F)(F)C1 (racemic) [Example 155, 3-(trans-3,3-difluoro-5-methylcyclohexyl[1,2,4]triazolo[4,3-a]pyrazin-8-amine]
29 | 30 |  | CC1(C)CC(c2nnc3c(N)nccn23)CC(F)(F)C1 (racemic) [Example 156, 3-(3,3-difluoro-5,5-dimethylcyclohexyl) [1,2,4]triazolo[4,3-a]pyrazin-8-amine]
30 | 740 |  | CN1CCCCC1c1nnc2c(N)nccn12 (racemic) [Example 249, 3-(1-methylpiperidin-2-yl)-[1,2,4]triazolo[4,3-a]pyrazin-8-amine]
31 | 180 |  | Nc1nccn2c(C3CCCCN3c3ncccn3)nnc12 (racemic) [Example 250, 3-(1-(pyrimidin-2-yl)piperidin-2-yl)-[1,2,4]triazolo[4,3-a]pyrazin-8-amine]
32 | 620 |  | COC(=O)N1CCCCC1c1nnc2c(N)nccn12 (racemic) [Example 251, methyl 2-(8-amino-[1,2,4]triazolo[4,3-a]pyrazin-3-yl)-piperidine-1-carboxylate]
33 | 360 |  | Nc1ncnc2c1nnn2[C@H]1CCC[C@H](C(F)(F)F)C1 (relative stereo) [Example 86, 3-[trans-3-(trifluoromethyl)cyclohexyl]-3H-[1,2,3]triazolo[4,5-d]pyrimidin-7-amine]
34 | 220 |  | Nc1nccn2c([C@@H]3[C@H]4C=CC[C@H]43)nnc12 (relative stereo) [Example 163, 3-[(1S*,5R*,6S*)-bicyclo[3.1.0]hex-2-en-6-yl][1,2,4]triazolo[4,3-a]pyrazin-8-amine]
35 | 190 |  | CC1CCCN(c2nnc3c(N)nccn23)C1C (single isomer, unassigned) [Example 56, 3-(2,3-dimethylpiperidin-1-yl) [1,2,4]triazolo[4,3-a]pyrazin-8-amine]
36 | 10 |  | CC1CCCCC1c1nnc2c(N)ncnn12 (single isomer, unassigned) [Example 69, 3-(cis-2-methylcyclohexyl) [1,2,4]triazolo[3,4-f][1,2,4]triazin-8-amine]
37 | 4 |  | CC1CCCC(c2nnc3c(N)ncnn23)C1 (single isomer, unassigned) [Example 71, 3-(cis-3-methylcyclohexyl) [1,2,4]triazolo[3,4-f][1,2,4]triazin-8-amine]
38 | < 10 |  | Nc1ncnn2c(C3CCCC(C(F)(F)F)C3)nnc12 (single isomer, unassigned) [Example 74, 3-[cis-3-(trifluoromethyl)cyclohexyl][1,2,4]triazolo[3,4-f][1,2,4]triazin-8-amine]
39 | 190 |  | Nc1ncnc2c1nnn2C1CCCCC1(F)F (single isomer, unassigned) [Example 114, 3-(2,2-difluorocyclohexyl)-3H-[1,2,3]triazolo[4,5-d]pyrimidin-7-amine]
40 | > 1000 | 3 | CC1CCC(C(F)(F)F)CC1c1nnc2c(N)nccn12 (single isomer, unassigned) [Example 173, 3-[2-methyl-5-(trifluoromethyl)cyclohexyl][1,2,4]triazolo[4,3-a]pyrazin-8-amine]
